According to US6337345B1, “Insecticidal or miticidal combinations containing chlorfenapyr” (American Cyanamid Co., priority 1996, dated 2002):

Tests used:
Format in all cases: in vivo
[1] = tested on: female imagines of Kanzawa spider mite (Tetranychus kanzawai kishida) which had acquired a strong resistance to chlorfenapyr; assay: Miticidal effect on female imagines of chlorfenapyr-resistant Kanzawa spider mite, leaf disk spray test
Method: In this experiment, the miticidal effect against female imagines (adults) of Kanzawa spider mite (Tetranychus kanzawai kishida) which are registrant to chlorfenapyr is evaluated.
Round leaf disks (2 cm diameter) are cut out of a first leaf of kidney bean by a leaf punch and 4 sheets of the disks are placed on wet sanitary cotton in a plastic cup (8 cm diameter). On each leaf disk, 4 female imagines of Kanzawa spider mite (Tetranychus kanzawai kishida) which had acquired a strong resistance to chlorfenapyr are inoculated.
After the inoculation, chlorfenapyr and a compound(s) selected from group A are dispersed in water containing 200 ppm of an extender (Sorpol 3005X) and diluted such that a predetermined concentration of active ingredient is obtained. Each plastic cup is sprayed with 3.5 ml of a test solution with a rotary spray tower (Mizuho Scientific Co., Ltd.) and stored in a constant temperature chamber held at 25±1° C. (32 individuals are tested per concentration, 4−5 concentrations are evaluated per formulation, and 2 performances were repeated). Two days after treatment, the number of living and dead female imagines of Kanzawa spider mite (Tetranychus kanzawai kishida) which had acquired a strong resistance to chlorfenapyr is counted and the mortality (%) is calculated according the formula shown hereinbelow.
A co-toxicity coefficient is calculated by applying Sun and Johnson's formula (J. Econ. Ent., Vol 53, p. 887, […]) which is generally used to determine the degree of synergistic activity.
Co-toxicity coefficient=T^c [formula]
For T^c values greater than 100, the greater value indicates a stronger synergistic action. For a T^c value equal to 100, an additive action is indicated. For T^c values less than 100, the lesser value indicates a greater antagonistic action. A more detailed description of the calculation of the co-toxicity coefficient using the above-referenced Sun and Johnson formula follows.
The LC50 values of Test Compound A alone and Test Compound B alone and the LC50 value of the (A+B) mixture M is determined.
Actual toxicity index of mixture M=M^ti
Each LC50 value of effective ingredient A and effective ingredient B and the LC50 value of the mixture of A+B are used to determine the actual toxicity index as shown in the equation below. [formula]
Theoretical toxicity index of mixture M=Th.M^ti
Th.M^ti=(Toxicity index of A×%A in M+Toxicity index of B×%B in M)
Toxicity index of B=B^ti [formula]

[2] = tested on: susceptible strain of Kanzawa spider mite; assay: LC50 against susceptible strain of Kanzawa spider mite
Text: By comparison, the LC50 value for chlorfenapyr against a susceptible strain of Kanzawa spider mite is about 5 ppm.

[3] = tested on: female imagines of Kanzawa spider mite (Tetranychus kanzawai kishida) which had acquired a strong resistance to chlorfenapyr; assay: Miticidal effect on female imagines of chlorfenapyr-resistant Kanzawa spider mite, leaf disk spray test; conditions: resistant strain obtained by long artificial selection in the laboratory, compared with susceptible strain
[4] = single test compound, chlorfenapyr-resistant strain, female imago, mortality two days after treatment, probit analysis
[5] = single test compound, chlorfenapyr-resistant strain

| Compound | LC50 [1, 4] [ppm] | miticidal effect (in words) [1, 5] | LC50 [2] | resistance to chlorfenapyr of the resistant strain [3] [fold] | LC50 ([1]; in vivo) [ppm] |
| --- | --- | --- | --- | --- | --- |
| C/C1=C\C[C@@H]2C[C@@H](C[C@]3(CC[C@H](C)[C@@H](C)O3)O2)OC(=O)[C@@H]2CC[C@@H](O)[C@H]3OC/C(=C\C=C\[C@H](C)C1)[C@]32O (mixture of isomers) [Milbemectin] | 0.28 |  |  |  |  |
| Cc1ccc(N=CN(C)C=Nc2ccc(C)cc2C)c(C)c1 [Amitraz, 3-methyl-1,5-bis(2,4-xylyl)-1,3,5-triazapenta-1,4-diene] | 200 | low effects |  |  |  |
| CCC(C)c1cc([N+](=O)[O-])cc([N+](=O)[O-])c1OC(=O)C=C(C)C (stereo not drawn) [Binapacryl, 2,4-dinitro-6-sec-butylphenyldimethyl-acrylate] | 180 |  |  |  |  |
| CCOCn1c(-c2ccc(Cl)cc2)c(C#N)c(Br)c1C(F)(F)F [Chlorfenapyr, 4-bromo-2-(4-chloropheny)-1-(ethoxymethyl)-5-(trifuloromethyl)pyrrole-3-carbonitrile] | 1500 |  | about 5 ppm | ~300 |  |
| CN(C)C(=O)SCCCCOc1ccccc1 [Fenothiocarb, S-4-phenoxybutyl-dimethylthiocarbamate] | 1000 |  |  |  |  |
| OC(c1ccc(Cl)cc1)(c1ccc(Cl)cc1)C(Cl)(Cl)Cl [Kelthane (Dicofol)] | 32 | high miticidal effect |  |  |  |
| CC(C)OC(=O)C(O)(c1ccc(Br)cc1)c1ccc(Br)cc1 [Phenisobromalate, isopropyl 4,4′-dibromobenzilate] | 280 | low effects |  |  |  |
| CCOCCc1ccc(OCCNc2ncnc(CC)c2Cl)c(C)c1C [Pyrimidifen, 5-chloro-N-{2-[2,3-dimethyl-4-(2-ethoxyethyl)phenoxy]ethyl}-6-ethyl-4-pyrimidinamine] |  | high miticidal effect |  |  | 10 |
| O=S(=O)(c1ccc(Cl)cc1)c1cc(Cl)c(Cl)cc1Cl [Tetradifon, 2,4,5,4′-tetrachlorodiphenyisulfone] | 4900 | low miticidal effect |  |  |  |
| dinitromethylheptylphenyl crotonate [DPC] | 630 | low effects |  |  |  |
